Reference: patent publication US20250019387A1 (Frontier Medicines Corporation, priority 0001, published 2025)
pIC50: −log10 of the molar value.

Biological target: KRAS G12C and cRAF (Ras-binding domain) interaction (Homo sapiens (Human), UniProt P01116, C118S/C51S/C80L/G12C)
Experiment: Inhibition of KRAS G12C and cRAF binding (AlphaScreen)
Conditions: GMPPNP-loaded KRAS G12C, 19-20 hours incubation with compound; read-out: IC50 (Inhibition of KRAS G12C and cRAF Binding)
Outline: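 IC50 values come from 4-parameter nonlinear regression of AlphaScreen signal (680 nm excitation, 570 nm emission). Compound plates sat 19-20 h at room temperature before RBD and donor/acceptor beads were added in Hepes pH 7.4 buffer with 150 mM NaCl, 5 mM MgCl2, 2% DMSO for 60-90 min; biotin-AviTag-GST replaced RBD to flag assay-technology interferers.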

Sequence of KRAS G12C and cRAF (Ras-binding domain) interaction (P01116 other isoform, or with tags, fused parts or gaps G12C/C51S/C80L/C118S): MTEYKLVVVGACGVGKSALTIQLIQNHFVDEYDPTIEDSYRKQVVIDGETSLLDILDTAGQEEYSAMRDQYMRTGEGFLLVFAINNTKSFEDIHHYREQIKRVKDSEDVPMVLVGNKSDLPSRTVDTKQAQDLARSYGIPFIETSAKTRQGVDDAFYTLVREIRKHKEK

pIC50	SMILES
6.30 to 7.00	CN(CCS(=O)(=O)/C=C/CN1CC(F)C1)c1nc(OC[C@@H]2CCCN2C)nc2c1CCN(c1cccc3cccc(Cl)c13)C2 [Example 53, 7-(8-chloro-1-naphthyl)-N-[2-[(E)-3-(3-fluoroazetidin-1-yl)prop-1-enyl]sulfonylethyl]-N-methyl-2-[[(2S)-1-methylpyrrolidin-2-yl]methoxy]-6,8-dihydro-5H-pyrido[3,4-d]pyrimidin-4-amine]
6.30 to 7.00	C/C=C/S(=O)(=O)CCN(C)c1nc(OCC23CCCN2CCC3)nc2c1CCN(c1cccc3cccc(Cl)c13)C2 [Example 54, (E)-7-(8-chloronaphthalen-1-yl)-2-((hexahydro-1H-pyrrolizin-7a-yl)methoxy)-N-methyl-N-(2-(prop-1-en-1-ylsulfonyl)ethyl)-5,6,7,8-tetrahydropyrido[3,4-d]pyrimidin-4-amine]
> 8.00	CCN(CC)C/C=C/S(=O)(=O)CCN(C)c1nc(OCC23CCCN2CCC3)nc2c1CCN(c1cccc3cccc(Cl)c13)C2 [Example 55, (E)-7-(8-chloronaphthalen-1-yl)-N-(2-((3-(diethylamino)prop-1-en-1-yl)sulfonyl)ethyl)-2-((hexahydro-1H-pyrrolizin-7a-yl)methoxy)-N-methyl-5,6,7,8-tetrahydropyrido[3,4-d]pyrimidin-4-amine]
7.00 to 8.00	CN(c1nc(OC[C@@]23CCCN2C[C@H](F)C3)nc2c(F)c(-c3cccc4cccc(Cl)c34)ncc12)[C@H]1CN(C(=O)/C=C/c2nc(C(C)(C)O)no2)C[C@@H]1F [Example 56, (E)-1-((3S,4S)-3-((7-(8-chloronaphthalen-1-yl)-8-fluoro-2-(((2R,7aS)-2-fluorohexahydro-1H-pyrrolizin-7a-yl)methoxy)pyrido[4,3-d]pyrimidin-4-yl)(methyl)amino)-4-fluoropyrrolidin-1-yl)-3-(3-(2-hydroxypropan-2-yl)-1,2,4-oxadiazol-5-yl)prop-2-en-1-one]
6.30 to 7.00	C=CC(=O)N1C[C@H](O)[C@@H](N(C)c2nc(OC[C@@]34CCCN3C[C@H](F)C4)nc3c(F)c(-c4cccc5cccc(Cl)c45)ncc23)C1 [Example 57, 1-((3S,4S)-3-((7-(8-chloronaphthalen-1-yl)-8-fluoro-2-(((2R,7aS)-2-fluorohexahydro-1H-pyrrolizin-7a-yl)methoxy)pyrido[4,3-d]pyrimidin-4-yl)(methyl)amino)-4-hydroxypyrrolidin-1-yl)prop-2-en-1-one]
7.00 to 8.00	CN(c1nc(OC[C@@]23CCCN2C[C@H](F)C3)nc2c(F)c(-c3cccc4cccc(Cl)c34)ncc12)[C@@H]1CCN(C(=O)C#CC2CCNC2)C1 (stereo partly drawn) [Example 58, 1-((R)-3-((7-(8-chloronaphthalen-1-yl)-8-fluoro-2-(((2R,7aS)-2-fluorohexahydro-1H-pyrrolizin-7a-yl)methoxy)pyrido[4,3-d]pyrimidin-4-yl)(methyl)amino)pyrrolidin-1-yl)-3-(pyrrolidin-3-yl)prop-2-yn-1-one]
> 8.00	CN(c1nc(OC[C@@]23CCCN2C[C@H](F)C3)nc2c(F)c(-c3cccc4cccc(Cl)c34)ncc12)[C@@H]1CCN(C(=O)C#CC2CCCN2)C1 (stereo partly drawn) [Example 59, 1-((R)-3-((7-(8-chloronaphthalen-1-yl)-8-fluoro-2-(((2R,7aS)-2-fluorotetrahydro-1H-pyrrolizin-7a(5H)-yl)methoxy)pyrido[4,3-d]pyrimidin-4-yl)(methyl)amino)pyrrolidin-1-yl)-3-(pyrrolidin-2-yl)prop-2-yn-1-one]
6.30 to 7.00	C=CC(=O)N1CC(F)(CN(C)c2nc(OC[C@@]34CCCN3C[C@H](F)C4)nc3c(F)c(-c4cccc5ccc(F)c(Cl)c45)ncc23)C1 [Example 60, 1-(3-(((7-(8-chloro-7-fluoronaphthalen-1-yl)-8-fluoro-2-(((2R,7aS)-2-fluorotetrahydro-1H-pyrrolizin-7a(5H)-yl)methoxy)pyrido[4,3-d]pyrimidin-4-yl)(methyl)amino)methyl)-3-fluoroazetidin-1-yl)prop-2-en-1-one]
7.00 to 8.00	CN(c1nc(OCC23CCCN2CCC3)nc2c(F)c(-c3cccc4ccc(F)c(Cl)c34)ncc12)[C@@H]1CCN(C(=O)/C=C/c2nc(C(C)(C)O)no2)C1 [Example 61, (R,E)-1-(3-((7-(8-chloro-7-fluoronaphthalen-1-yl)-8-fluoro-2-((hexahydro-1H-pyrrolizin-7a-yl)methoxy)pyrido[4,3-d]pyrimidin-4-yl)(methyl)amino)pyrrolidin-1-yl)-3-(3-(2-hydroxypropan-2-yl)-1,2,4-oxadiazol-5-yl)prop-2-en-1-one]
7.00 to 8.00	Cc1nccc(/C=C/C(=O)N2CC(CN(C)c3nc(OC[C@@]45CCCN4C[C@H](F)C5)nc4c(F)c(-c5cccc6cccc(Cl)c56)ncc34)C2)n1 [Example 62, (E)-1-(3-(((7-(8-chloronaphthalen-1-yl)-8-fluoro-2-(((2R,7aS)-2-fluorotetrahydro-1H-pyrrolizin-7a(5H)-yl)methoxy)pyrido[4,3-d]pyrimidin-4-yl)(methyl)amino)methyl)azetidin-1-yl)-3-(2-methylpyrimidin-4-yl)prop-2-en-1-one]
7.00 to 8.00	CN(CC1CN(C(=O)/C=C/c2ccncn2)C1)c1nc(OC[C@@]23CCCN2C[C@H](F)C3)nc2c(F)c(-c3cccc4cccc(Cl)c34)ncc12 [Example 63, (E)-1-(3-(((7-(8-chloronaphthalen-1-yl)-8-fluoro-2-(((2R,7aS)-2-fluorotetrahydro-1H-pyrrolizin-7a(5H)-yl)methoxy)pyrido[4,3-d]pyrimidin-4-yl)(methyl)amino)methyl)azetidin-1-yl)-3-(pyrimidin-4-yl)prop-2-en-1-one]
> 8.00	CN(c1nc(OC[C@@]23CCCN2C[C@H](F)C3)nc2c(F)c(-c3cccc4cccc(Cl)c34)ncc12)[C@@H]1CCN(C(=O)C#CC2CNCCO2)C1 (stereo partly drawn) [Example 64, 1-((R)-3-((7-(8-chloronaphthalen-1-yl)-8-fluoro-2-(((2R,7aS)-2-fluorohexahydro-1H-pyrrolizin-7a-yl)methoxy)pyrido[4,3-d]pyrimidin-4-yl)(methyl)amino)pyrrolidin-1-yl)-3-(morpholin-2-yl)prop-2-yn-1-one]
7.00 to 8.00	CN1CCC(C#CC(=O)N2CC[C@@H](N(C)c3nc(OC[C@@]45CCCN4C[C@H](F)C5)nc4c(F)c(-c5cccc6cccc(Cl)c56)ncc34)C2)C1 (stereo partly drawn) [Example 65, 1-((R)-3-((7-(8-chloronaphthalen-1-yl)-8-fluoro-2-(((2R,7aS)-2-fluorohexahydro-1H-pyrrolizin-7a-yl)methoxy)pyrido[4,3-d]pyrimidin-4-yl)(methyl)amino)pyrrolidin-1-yl)-3-(1-methylpyrrolidin-3-yl)prop-2-yn-1-one]
7.00 to 8.00	CN1CCCC1C#CC(=O)N1CC[C@@H](N(C)c2nc(OC[C@@]34CCCN3C[C@H](F)C4)nc3c(F)c(-c4cccc5cccc(Cl)c45)ncc23)C1 (stereo partly drawn) [Example 66, 1-((R)-3-((7-(8-chloronaphthalen-1-yl)-8-fluoro-2-(((2R,7aS)-2-fluorotetrahydro-1H-pyrrolizin-7a(5H)-yl)methoxy)pyrido[4,3-d]pyrimidin-4-yl)(methyl)amino)pyrrolidin-1-yl)-3-(1-methylpyrrolidin-2-yl)prop-2-yn-1-one]
7.00 to 8.00	CN1CC(C#CC(=O)N2CC[C@@H](N(C)c3nc(OC[C@@]45CCCN4C[C@H](F)C5)nc4c(F)c(-c5cccc6cccc(Cl)c56)ncc34)C2)C1 [Example 67, 1-((R)-3-((7-(8-chloronaphthalen-1-yl)-8-fluoro-2-(((2R,7aS)-2-fluorohexahydro-1H-pyrrolizin-7a-yl)methoxy)pyrido[4,3-d]pyrimidin-4-yl)(methyl)amino)pyrrolidin-1-yl)-3-(1-methylazetidin-3-yl)prop-2-yn-1-one]
7.00 to 8.00	Cc1nccc(/C=C/C(=O)N2CC(CN(C)c3nc(OC[C@@]45CCCN4C[C@H](F)C5)nc4c(F)c(-c5cccc6ccc(F)c(Cl)c56)ncc34)C2)n1 [Example 68, (E)-1-(3-(((7-(8-chloro-7-fluoronaphthalen-1-yl)-8-fluoro-2-(((2R,7aS)-2-fluorotetrahydro-1H-pyrrolizin-7a(5H)-yl)methoxy)pyrido[4,3-d]pyrimidin-4-yl)(methyl)amino)methyl)azetidin-1-yl)-3-(2-methylpyrimidin-4-yl)prop-2-en-1-one]
6.30 to 7.00	Cc1nccc(/C=C/C(=O)N2CC(CN(C)c3nc(OC[C@@]45CCCN4C[C@H](F)C5)nc4c3CCN(c3cccc5cccc(Cl)c35)C4)C2)n1 [Example 69, (E)-1-(3-(((7-(8-chloronaphthalen-1-yl)-2-(((2R,7aS)-2-fluorohexahydro-1H-pyrrolizin-7a-yl)methoxy)-5,6,7,8-tetrahydropyrido[3,4-d]pyrimidin-4-yl)(methyl)amino)methyl)azetidin-1-yl)-3-(2-methylpyrimidin-4-yl)prop-2-en-1-one]
7.00 to 8.00	CN(CC1CN(C(=O)/C=C/c2ccncn2)C1)c1nc(OC[C@@]23CCCN2C[C@H](F)C3)nc2c1CCN(c1cccc3cccc(Cl)c13)C2 [Example 70, (E)-1-(3-(((7-(8-chloronaphthalen-1-yl)-2-(((2R,7aS)-2-fluorohexahydro-1H-pyrrolizin-7a-yl)methoxy)-5,6,7,8-tetrahydropyrido[3,4-d]pyrimidin-4-yl)(methyl)amino)methyl)azetidin-1-yl)-3-(pyrimidin-4-yl)prop-2-en-1-one]
< 6.30	Cc1nccc(/C=C/C(=O)N2CC[C@@H](N(C)c3nc(OC[C@@]45CCCN4C[C@H](F)C5)nc4c3CCN(c3cccc5cccc(Cl)c35)C4)C2)n1 [Example 71, (E)-1-((R)-3-((7-(8-chloronaphthalen-1-yl)-2-(((2R,7aS)-2-fluorohexahydro-1H-pyrrolizin-7a-yl)methoxy)-5,6,7,8-tetrahydropyrido[3,4-d]pyrimidin-4-yl)(methyl)amino)pyrrolidin-1-yl)-3-(2-methylpyrimidin-4-yl)prop-2-en-1-one]
